Results taken from US12365696B2, “Small-molecule focal adhesion kinase (FAK) inhibitors” (DANA-FARBER CANCER INSTITUTE, INC., priority 2019, dated 2025).

Columns and labels:
Test in all cases: KINOMEscan
Assay type in all cases: binding
[1] = biological target: ARK5 (Homo sapiens (Human), UniProt O60285); settings: ARK5, 10000 nM; read-out: Percent Control
[2] = biological target: BMX (Homo sapiens (Human), UniProt P51813); settings: 10000 nM, read-out: Percent Control
[3] = biological target: CDK11 (Homo sapiens (Human), UniProt Q9BWU1); settings: CDK11, 10000 nM; read-out: Percent Control
[4] = biological target: CDKL1 (Homo sapiens (Human), UniProt Q00532); settings: CDKL1, 10000 nM; read-out: Percent Control
[5] = biological target: CSNK1D (Homo sapiens (Human), UniProt P48730); settings: 10000 nM, read-out: Percent Control
[6] = biological target: DYRK1A (Homo sapiens (Human), UniProt Q13627); settings: 10000 nM, read-out: Percent Control
[7] = biological target: EGFR(L747-E749del, A750P) (Homo sapiens (Human), UniProt P00533, A750P/DEL747-749); settings: 10000 nM, read-out: Percent Control
[8] = biological target: ERBB2 (Homo sapiens (Human), UniProt P04626); settings: ERBB2, 10000 nM; read-out: Percent Control
[9] = biological target: FGFR3(G697C) (Homo sapiens (Human), UniProt P22607, G697C); settings: 10000 nM, read-out: Percent Control
[10] = biological target: FLT3(R834Q) (Homo sapiens (Human), UniProt P36888, R834Q); settings: 10000 nM, read-out: Percent Control
[11] = biological target: FYN (Homo sapiens (Human), UniProt P06241); settings: 10000 nM, read-out: Percent Control
[12] = biological target: INSR (Homo sapiens (Human), UniProt P06213); settings: 10000 nM, read-out: Percent Control
[13] = biological target: JNK1 (Homo sapiens (Human), UniProt P45983); settings: JNK1, 10000 nM; read-out: Percent Control
[14] = biological target: KIT(D816V) (Homo sapiens (Human), UniProt P10721, D816V); settings: 10000 nM, read-out: Percent Control
[15] = biological target: MEK1 (Homo sapiens (Human), UniProt Q02750); settings: MEK1, 10000 nM; read-out: Percent Control
[16] = biological target: MKNK1 (Homo sapiens (Human), UniProt Q9BUB5); settings: MKNK1, 10000 nM; read-out: Percent Control
[17] = biological target: MST4 (Homo sapiens (Human), UniProt Q9P289); settings: MST4, 10000 nM; read-out: Percent Control
[18] = biological target: NEK10 (Homo sapiens (Human), UniProt Q6ZWH5); settings: NEK10, 10000 nM; read-out: Percent Control
[19] = biological target: PAK2 (Homo sapiens (Human), UniProt Q13177); settings: PAK2, 10000 nM; read-out: Percent Control
[20] = biological target: PAK3 (Homo sapiens (Human), UniProt O75914); settings: PAK3, 10000 nM; read-out: Percent Control
[21] = biological target: PLK1 (Homo sapiens (Human), UniProt P53350); settings: PLK1, 10000 nM; read-out: Percent Control
[22] = biological target: PRKCE (Homo sapiens (Human), UniProt Q02156); settings: 10000 nM, read-out: Percent Control
[23] = biological target: PRKD3 (Homo sapiens (Human), UniProt O94806); settings: PRKD3, 10000 nM; read-out: Percent Control
[24] = biological target: RET(M918T) (Homo sapiens (Human), UniProt P07949, M918T); settings: 10000 nM, read-out: Percent Control
[25] = biological target: ROS1 (Homo sapiens (Human), UniProt P08922); settings: ROS1, 10000 nM; read-out: Percent Control
[26] = biological target: SRPK3 (Homo sapiens (Human), UniProt Q9UPE1); settings: SRPK3, 10000 nM; read-out: Percent Control
[27] = biological target: STK35 (Homo sapiens (Human), UniProt Q8TDR2); settings: STK35, 10000 nM; read-out: Percent Control
[28] = biological target: STK39 (Homo sapiens (Human), UniProt Q9UEW8); settings: STK39, 10000 nM; read-out: Percent Control
[29] = biological target: TAK1 (Homo sapiens (Human), UniProt O43318); settings: TAK1, 10000 nM; read-out: Percent Control
[30] = biological target: TAOK3 (Homo sapiens (Human), UniProt Q9H2K8); settings: TAOK3, 10000 nM; read-out: Percent Control
[31] = biological target: WEE1 (Homo sapiens (Human), UniProt P30291); settings: WEE1, 10000 nM; read-out: Percent Control
[32] = biological target: WEE2 (Homo sapiens (Human), UniProt P0C1S8); settings: WEE2, 10000 nM; read-out: Percent Control
[33] = biological target: WNK4 (Homo sapiens (Human), UniProt Q96J92); settings: WNK4, 10000 nM; read-out: Percent Control

Sequence of CSNK1D (P48730 whole entry): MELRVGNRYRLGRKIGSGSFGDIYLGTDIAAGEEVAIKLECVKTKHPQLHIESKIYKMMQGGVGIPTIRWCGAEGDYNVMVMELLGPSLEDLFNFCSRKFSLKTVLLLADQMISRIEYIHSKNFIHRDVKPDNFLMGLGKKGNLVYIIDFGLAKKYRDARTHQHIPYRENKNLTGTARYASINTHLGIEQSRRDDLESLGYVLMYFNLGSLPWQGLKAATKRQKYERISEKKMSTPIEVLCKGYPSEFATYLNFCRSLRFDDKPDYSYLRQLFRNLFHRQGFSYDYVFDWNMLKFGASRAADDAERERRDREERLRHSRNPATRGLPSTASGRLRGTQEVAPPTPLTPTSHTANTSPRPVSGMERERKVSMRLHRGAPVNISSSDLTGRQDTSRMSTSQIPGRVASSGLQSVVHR
Sequence of MKNK1 (Q9BUB5 whole entry): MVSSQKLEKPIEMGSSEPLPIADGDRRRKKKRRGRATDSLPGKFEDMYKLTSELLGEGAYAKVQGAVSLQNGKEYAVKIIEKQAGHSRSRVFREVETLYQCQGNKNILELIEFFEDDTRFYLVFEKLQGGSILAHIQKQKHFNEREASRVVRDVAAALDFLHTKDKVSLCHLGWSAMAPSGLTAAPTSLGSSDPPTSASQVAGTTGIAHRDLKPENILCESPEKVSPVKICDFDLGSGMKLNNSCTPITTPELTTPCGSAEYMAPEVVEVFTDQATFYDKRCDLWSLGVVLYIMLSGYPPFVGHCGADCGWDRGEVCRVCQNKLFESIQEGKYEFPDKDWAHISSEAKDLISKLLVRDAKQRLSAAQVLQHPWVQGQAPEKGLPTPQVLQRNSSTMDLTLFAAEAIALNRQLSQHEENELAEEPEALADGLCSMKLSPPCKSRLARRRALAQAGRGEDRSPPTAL
Sequence of ERBB2 (P04626 23-1255): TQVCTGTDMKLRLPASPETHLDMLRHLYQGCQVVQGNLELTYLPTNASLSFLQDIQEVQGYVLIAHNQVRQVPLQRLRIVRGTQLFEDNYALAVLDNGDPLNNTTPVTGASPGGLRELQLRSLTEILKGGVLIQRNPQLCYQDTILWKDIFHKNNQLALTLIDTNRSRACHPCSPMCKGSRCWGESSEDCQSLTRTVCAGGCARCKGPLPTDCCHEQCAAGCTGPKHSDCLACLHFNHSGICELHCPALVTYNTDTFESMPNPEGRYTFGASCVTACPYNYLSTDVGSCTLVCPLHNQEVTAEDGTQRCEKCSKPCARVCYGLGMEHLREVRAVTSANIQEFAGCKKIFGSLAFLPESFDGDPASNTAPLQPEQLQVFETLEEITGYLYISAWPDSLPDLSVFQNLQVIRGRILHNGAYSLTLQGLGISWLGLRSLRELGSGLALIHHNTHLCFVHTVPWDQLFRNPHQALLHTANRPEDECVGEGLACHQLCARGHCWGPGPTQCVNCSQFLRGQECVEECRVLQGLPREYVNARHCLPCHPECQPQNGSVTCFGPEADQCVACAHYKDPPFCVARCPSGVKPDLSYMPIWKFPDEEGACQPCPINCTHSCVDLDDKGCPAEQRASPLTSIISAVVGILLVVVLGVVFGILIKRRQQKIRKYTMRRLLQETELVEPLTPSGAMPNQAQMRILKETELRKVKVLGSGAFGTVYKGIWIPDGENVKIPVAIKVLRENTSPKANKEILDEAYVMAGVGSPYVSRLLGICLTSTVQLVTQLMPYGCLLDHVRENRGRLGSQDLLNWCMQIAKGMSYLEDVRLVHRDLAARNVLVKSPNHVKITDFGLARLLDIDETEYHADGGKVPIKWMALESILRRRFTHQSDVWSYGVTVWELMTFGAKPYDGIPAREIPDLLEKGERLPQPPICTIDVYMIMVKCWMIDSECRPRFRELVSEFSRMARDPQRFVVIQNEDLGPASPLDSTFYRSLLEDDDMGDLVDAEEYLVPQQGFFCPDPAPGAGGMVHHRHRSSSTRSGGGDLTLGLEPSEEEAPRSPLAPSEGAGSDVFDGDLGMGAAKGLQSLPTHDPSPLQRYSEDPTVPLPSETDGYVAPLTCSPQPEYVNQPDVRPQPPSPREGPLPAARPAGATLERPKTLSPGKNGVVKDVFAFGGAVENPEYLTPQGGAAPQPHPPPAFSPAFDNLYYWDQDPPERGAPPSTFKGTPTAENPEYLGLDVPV
Sequence of STK35 (Q8TDR2 whole entry): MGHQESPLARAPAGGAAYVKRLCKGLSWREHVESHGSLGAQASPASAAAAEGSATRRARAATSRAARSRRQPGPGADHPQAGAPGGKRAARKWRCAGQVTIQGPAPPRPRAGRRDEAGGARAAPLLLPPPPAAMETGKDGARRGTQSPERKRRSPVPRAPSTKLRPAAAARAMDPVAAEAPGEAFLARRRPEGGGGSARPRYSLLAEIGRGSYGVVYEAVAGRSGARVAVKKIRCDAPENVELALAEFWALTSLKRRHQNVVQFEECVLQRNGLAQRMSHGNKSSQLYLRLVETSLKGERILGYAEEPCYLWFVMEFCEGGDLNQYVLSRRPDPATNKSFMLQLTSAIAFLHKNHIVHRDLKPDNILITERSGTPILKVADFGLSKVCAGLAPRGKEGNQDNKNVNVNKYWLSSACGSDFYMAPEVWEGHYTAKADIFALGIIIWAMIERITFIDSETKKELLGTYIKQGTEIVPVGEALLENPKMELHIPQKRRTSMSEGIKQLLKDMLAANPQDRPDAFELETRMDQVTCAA
Sequence of WEE2 (P0C1S8 whole entry): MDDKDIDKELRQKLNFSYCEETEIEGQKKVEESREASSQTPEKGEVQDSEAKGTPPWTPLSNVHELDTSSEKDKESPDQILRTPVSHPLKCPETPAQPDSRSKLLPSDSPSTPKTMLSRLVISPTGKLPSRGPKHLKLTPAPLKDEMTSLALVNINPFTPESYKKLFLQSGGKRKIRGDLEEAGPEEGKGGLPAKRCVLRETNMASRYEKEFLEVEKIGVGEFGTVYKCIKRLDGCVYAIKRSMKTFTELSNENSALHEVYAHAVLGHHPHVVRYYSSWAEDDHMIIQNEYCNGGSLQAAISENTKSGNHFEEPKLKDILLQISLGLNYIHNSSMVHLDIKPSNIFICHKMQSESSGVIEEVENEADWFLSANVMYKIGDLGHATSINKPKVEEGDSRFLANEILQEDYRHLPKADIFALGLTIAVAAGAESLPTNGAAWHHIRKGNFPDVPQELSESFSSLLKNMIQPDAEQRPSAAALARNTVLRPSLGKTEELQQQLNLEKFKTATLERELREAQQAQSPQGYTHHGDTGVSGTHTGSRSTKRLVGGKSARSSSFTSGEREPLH
Sequence of FGFR3(G697C) (P22607 23-806 G697C): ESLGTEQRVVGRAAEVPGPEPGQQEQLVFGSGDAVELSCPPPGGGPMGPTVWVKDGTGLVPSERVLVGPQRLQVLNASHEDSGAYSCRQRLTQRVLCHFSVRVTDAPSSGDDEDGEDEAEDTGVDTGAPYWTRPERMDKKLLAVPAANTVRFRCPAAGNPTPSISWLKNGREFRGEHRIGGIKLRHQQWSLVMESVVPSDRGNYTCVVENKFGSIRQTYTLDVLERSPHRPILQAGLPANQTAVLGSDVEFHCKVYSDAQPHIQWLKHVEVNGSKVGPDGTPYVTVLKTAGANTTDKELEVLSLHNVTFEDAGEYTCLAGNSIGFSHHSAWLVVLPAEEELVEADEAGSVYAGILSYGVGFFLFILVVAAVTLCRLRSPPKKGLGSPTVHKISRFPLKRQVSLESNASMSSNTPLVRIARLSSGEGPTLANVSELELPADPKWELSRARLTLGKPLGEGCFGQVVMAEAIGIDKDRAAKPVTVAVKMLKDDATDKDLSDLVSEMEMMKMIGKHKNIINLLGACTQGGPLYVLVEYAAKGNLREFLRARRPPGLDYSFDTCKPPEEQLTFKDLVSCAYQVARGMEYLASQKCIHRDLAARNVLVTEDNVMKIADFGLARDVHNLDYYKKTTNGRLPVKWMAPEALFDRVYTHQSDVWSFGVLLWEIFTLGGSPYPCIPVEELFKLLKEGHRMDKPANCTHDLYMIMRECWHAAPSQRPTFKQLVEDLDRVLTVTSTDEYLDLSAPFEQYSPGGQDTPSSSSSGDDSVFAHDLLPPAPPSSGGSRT
Sequence of MST4 (Q9P289 whole entry): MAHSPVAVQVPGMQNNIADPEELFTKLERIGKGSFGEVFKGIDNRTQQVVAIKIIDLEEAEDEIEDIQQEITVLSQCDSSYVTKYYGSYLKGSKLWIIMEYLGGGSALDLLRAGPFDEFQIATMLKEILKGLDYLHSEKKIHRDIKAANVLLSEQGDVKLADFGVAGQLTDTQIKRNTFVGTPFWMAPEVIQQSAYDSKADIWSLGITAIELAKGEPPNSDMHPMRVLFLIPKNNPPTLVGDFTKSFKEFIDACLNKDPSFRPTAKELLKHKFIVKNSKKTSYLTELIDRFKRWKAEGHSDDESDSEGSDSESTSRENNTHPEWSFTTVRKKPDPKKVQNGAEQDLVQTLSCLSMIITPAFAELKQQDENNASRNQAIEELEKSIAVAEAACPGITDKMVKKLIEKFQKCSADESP
Sequence of SRPK3 (Q9UPE1 whole entry): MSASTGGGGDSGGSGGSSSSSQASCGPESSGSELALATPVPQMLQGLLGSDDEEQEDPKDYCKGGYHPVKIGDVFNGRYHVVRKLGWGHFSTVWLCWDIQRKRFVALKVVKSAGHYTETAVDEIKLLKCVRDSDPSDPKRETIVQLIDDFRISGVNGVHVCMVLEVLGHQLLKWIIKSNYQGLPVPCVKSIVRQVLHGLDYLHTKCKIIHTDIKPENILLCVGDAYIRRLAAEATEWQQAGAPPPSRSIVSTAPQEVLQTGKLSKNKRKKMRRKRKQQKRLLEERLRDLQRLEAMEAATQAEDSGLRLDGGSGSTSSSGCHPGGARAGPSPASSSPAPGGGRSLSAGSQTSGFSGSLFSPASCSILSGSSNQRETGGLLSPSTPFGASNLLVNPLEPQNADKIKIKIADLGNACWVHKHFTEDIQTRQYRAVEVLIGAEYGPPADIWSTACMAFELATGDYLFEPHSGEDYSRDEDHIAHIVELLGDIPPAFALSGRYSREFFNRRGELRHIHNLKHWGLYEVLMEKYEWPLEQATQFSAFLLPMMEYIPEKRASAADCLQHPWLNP

Compound	remaining binding at 10 µM [1] [%]	remaining binding at 10 µM [2] [%]	remaining binding at 10 µM [3] [%]	remaining binding at 10 µM [4] [%]	remaining binding at 10 µM [5] [%]	remaining binding at 10 µM [6] [%]	remaining binding at 10 µM [7] [%]	remaining binding at 10 µM [8] [%]	remaining binding at 10 µM [9] [%]	remaining binding at 10 µM [10] [%]	remaining binding at 10 µM [11] [%]	remaining binding at 10 µM [12] [%]	remaining binding at 10 µM [13] [%]	remaining binding at 10 µM [14] [%]	remaining binding at 10 µM [15] [%]	remaining binding at 10 µM [16] [%]	remaining binding at 10 µM [17] [%]	remaining binding at 10 µM [18] [%]	remaining binding at 10 µM [19] [%]	remaining binding at 10 µM [20] [%]	also measured
COc1cc(N2CCC(N3CCN(C)CC3)CC2)ccc1Nc1ncc2c(n1)N(C)c1sc(C)nc1C(=O)N2 [Compound 3, 6-((2-methoxy-4-(4-(4-methylpiperazin-1-yl)piperidin-1-yl)phenyl)amino)-2,4-dimethyl-4,9-dihydro-10H-pyrimido[5,4-b]thiazolo[5,4-e][1,4]diazepin-10-one]	86	76	71	72	54	100	95	98	78	100	73	83	100	11	100	100	100	100	72	78	remaining binding at 10 µM [21]: 100%; remaining binding at 10 µM [22]: 100%; remaining binding at 10 µM [23]: 75%; remaining binding at 10 µM [24]: 87%; remaining binding at 10 µM [25]: 74%; remaining binding at 10 µM [26]: 75%; remaining binding at 10 µM [27]: 89%; remaining binding at 10 µM [28]: 100%; remaining binding at 10 µM [29]: 95%; remaining binding at 10 µM [30]: 100%; remaining binding at 10 µM [31]: 88%; remaining binding at 10 µM [32]: 65%; remaining binding at 10 µM [33]: 100%
COc1cc(N2CCC(N3CCN(C)CC3)CC2)ccc1Nc1ncc2c(n1)N(C)c1sc(C)nc1C(=O)N2C [Compound 5, 6-((2-methoxy-4-(4-(4-methylpiperazin-1-yl)piperidin-1-yl)phenyl)amino)-2,4,9-trimethyl-4,9-dihydro-10H-pyrimido[5,4-b]thiazolo[5,4-e][1,4]diazepin-10-one]	94	90	90	80	87	87	97	100	100	81	93	40	100	100	95	96	100	94	89	92	remaining binding at 10 µM [21]: 0.7%; remaining binding at 10 µM [22]: 100%; remaining binding at 10 µM [23]: 34%; remaining binding at 10 µM [24]: 100%; remaining binding at 10 µM [25]: 75%; remaining binding at 10 µM [26]: 100%; remaining binding at 10 µM [27]: 100%; remaining binding at 10 µM [28]: 77%; remaining binding at 10 µM [29]: 100%; remaining binding at 10 µM [30]: 77%; remaining binding at 10 µM [31]: 98%; remaining binding at 10 µM [32]: 100%; remaining binding at 10 µM [33]: 100%
